A short description of the data set: Test on the solubility in a simulated body fluid. It counts as physicochemical. As to conditions: for Compound concentration: Bupivacaine / Compound concentration: Pamoic acid / solubility: 0.01 M PBS pH 7.4, 37° C. How it is done:
Test on the Solubility in a Simulated Body Fluid
The concentration of the drug dissolved in the PBS buffered solution was determined with an HPLC-a method.

Consider 5 compounds from patent US11084790B2, “Insoluble complex or solvate thereof, pharmaceutical composition and use thereof” (Fruithy Holdings Limited, priority 2017, dated 2021).

The structures appear in SMILES notation. Converted amounts (≈) assume the structure as drawn.

For orientation: solubility means how much of the substance goes into solution per volume. On to `CCCCN1CCCCC1C(=O)Nc1c(C)cccc1C.CCCCN1CCCCC1C(=O)Nc1c(C)cccc1C.O=C(O)c1cc2ccccc2c(Cc2c(O)c(C(=O)O)cc3ccccc23)c1O` [Preparation Example 12, bis(bupivacaine) pamoate], for which the “Compound concentration: Bupivacaine” value (5 min) is 147.5 µM; the “Compound concentration: Bupivacaine” value (15 min) is 210.1 µM; the “Compound concentration: Bupivacaine” value (30 min) is 247.4 µM; the “Compound concentration: Bupivacaine” value (1 h) is 267.2 µM; the “Compound concentration: Bupivacaine” value (2 h) was 280.2 µM; the “Compound concentration: Bupivacaine” value (6 h) is 290.8 µM. Under “24 h”, the “Compound concentration: Bupivacaine” value was 284.8 µM. In addition, the “Compound concentration: Pamoic acid” value is, setting by setting: (5 min) 73.6 µM; (15 min) 107 µM; (30 min) 127.4 µM; (1 h) 137.5 µM; (2 h) 140 µM; (6 h) 149.7 µM. In addition, where the note is “24 h”, the “Compound concentration: Pamoic acid” value was 142.9 µM. Further, the “stability of the suspension (ratio between acid radical and basic group)” value (simulated body fluid) is recorded as “stable”. Moreover, the “solubility” value (simulated body fluid) is listed as “about 0.3 mM”.
`CCCCN1CCCCC1C(=O)Nc1c(C)cccc1C.CCCCN1CCCCC1C(=O)Nc1c(C)cccc1C.O=C(O)c1cc2ccccc2c(Cc2c(O)c(C(=O)O)cc3ccccc23)c1O` [Preparation Example 29, bis(bupivacaine) pamoate]: the “Compound concentration: Bupivacaine” value runs as follows: (5 min) 159.8 µM; (15 min) 196.9 µM; (30 min) 241.5 µM; (1 h) 269.9 µM; (2 h) 271.3 µM; (6 h) 275.1 µM. For the same compound, the “Compound concentration: Bupivacaine” value (24 h) was 305 µM. In addition, the “Compound concentration: Pamoic acid” value is 78.2 µM (5 min); 97.3 µM (15 min); 122.1 µM (30 min); 119.5 µM (1 h); 140 µM (2 h); 145 µM (6 h). Where the note is “24 h”, the “Compound concentration: Pamoic acid” value is 151.6 µM. In addition, the “stability of the suspension (ratio between acid radical and basic group)” value (simulated body fluid) is on record as “stable”. In addition, where the note is “simulated body fluid”, the “solubility” value was “about 0.3 mM”.
As to `CCCCN1CCCCC1C(=O)Nc1c(C)cccc1C.CCCCN1CCCCC1C(=O)Nc1c(C)cccc1C.O=C(O)c1cc2ccccc2c(Cc2c(O)c(C(=O)O)cc3ccccc23)c1O` [Preparation Example 30, bis(bupivacaine) pamoate], the “Compound concentration: Bupivacaine” value (5 min) is 142.3 µM; the “Compound concentration: Bupivacaine” value (15 min) is 218.8 µM; the “Compound concentration: Bupivacaine” value (30 min) was 233.7 µM; the “Compound concentration: Bupivacaine” value (1 h) was 280.5 µM; the “Compound concentration: Bupivacaine” value (2 h) was 277.3 µM; the “Compound concentration: Bupivacaine” value (6 h) is 287.2 µM. Also, where the note is “24 h”, the “Compound concentration: Bupivacaine” value was 286.9 µM. The “Compound concentration: Pamoic acid” value by setting is: (5 min) 75.7 µM; (15 min) 111.6 µM; (30 min) 128.5 µM; (1 h) 135.6 µM; (2 h) 130.8 µM; (6 h) 137.9 µM. Further, under “24 h”, the “Compound concentration: Pamoic acid” value is 140.2 µM. Where the note is “simulated body fluid”, the “stability of the suspension (ratio between acid radical and basic group)” value is “stable”. For the same compound, under “simulated body fluid”, the “solubility” value is “about 0.3 mM”.
Regarding `CCCN1CCCC[C@H]1C(=O)Nc1c(C)cccc1C` [Ropivacaine free base, reference compound], the solubility at 24 h (phosphate buffered saline (simulated body fluid), 37 °C, aqueous buffer, thermodynamic from solid, simulated body fluid, 0.01 M PBS at pH 7.4, read-out: Saturated solubility) was 1360 µM (≈ 373 µg/mL).
Take `CCCCN1CCCCC1C(=O)Nc1c(C)cccc1C.CCCCN1CCCCC1C(=O)Nc1c(C)cccc1C.O=C(O)c1cc2ccccc2c(Cc2c(O)c(C(=O)O)cc3ccccc23)c1O` [bis(bupivacaine) pamoate]: the Saturated solubility (simulated body fluid, 0.01 M PBS at pH 7.4) was 300 µM.
